# Legend:
# Format in all cases: cell-based
# human TLR7 = biological target: T1, human TLR7 (Homo sapiens, UniProt Q9NYK1); experiment: TLR7 inhibition reporter assay (HEK-Blue SEAP reporter, gardiquimod stimulation); conditions: HEK-Blue cells overexpressing human TLR7, SEAP reporter, gardiquimod 7.5 μM, 22 hour incubation
# T1 construct: host or cells: HEK-Blue cells
# T1 sequence (Q9NYK1 27-1049): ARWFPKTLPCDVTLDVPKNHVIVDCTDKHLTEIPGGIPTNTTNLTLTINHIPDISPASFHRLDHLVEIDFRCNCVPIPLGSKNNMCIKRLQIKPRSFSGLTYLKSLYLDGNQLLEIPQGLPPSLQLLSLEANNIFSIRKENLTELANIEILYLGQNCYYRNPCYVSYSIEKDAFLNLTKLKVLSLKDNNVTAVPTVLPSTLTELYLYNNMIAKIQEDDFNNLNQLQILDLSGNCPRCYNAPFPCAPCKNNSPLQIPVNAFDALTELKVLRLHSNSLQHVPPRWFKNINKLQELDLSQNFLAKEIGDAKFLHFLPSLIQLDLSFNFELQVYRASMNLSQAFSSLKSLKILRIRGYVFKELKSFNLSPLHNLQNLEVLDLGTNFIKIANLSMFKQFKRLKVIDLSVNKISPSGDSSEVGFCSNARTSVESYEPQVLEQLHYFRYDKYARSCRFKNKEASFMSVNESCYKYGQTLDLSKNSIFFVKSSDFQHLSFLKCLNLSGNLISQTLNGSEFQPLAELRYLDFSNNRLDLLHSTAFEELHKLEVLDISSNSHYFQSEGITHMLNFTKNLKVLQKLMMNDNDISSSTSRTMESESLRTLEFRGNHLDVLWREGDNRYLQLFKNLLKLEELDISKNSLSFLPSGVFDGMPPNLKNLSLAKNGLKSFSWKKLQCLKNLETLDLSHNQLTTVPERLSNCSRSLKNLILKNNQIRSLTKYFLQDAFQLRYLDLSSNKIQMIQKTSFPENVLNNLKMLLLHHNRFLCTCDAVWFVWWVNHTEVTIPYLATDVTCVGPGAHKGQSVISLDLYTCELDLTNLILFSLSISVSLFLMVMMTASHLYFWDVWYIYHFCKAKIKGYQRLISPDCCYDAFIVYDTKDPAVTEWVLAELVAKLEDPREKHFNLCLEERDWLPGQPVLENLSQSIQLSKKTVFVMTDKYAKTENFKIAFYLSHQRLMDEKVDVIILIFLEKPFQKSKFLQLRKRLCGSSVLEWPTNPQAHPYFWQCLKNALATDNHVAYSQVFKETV
# In short: (§1)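 HEK-Blue cells overexpressing human TLR7, TLR8 or TLR9 carry a SEAP reporter driven by NF-κB/AP-1 sites. Compounds (0.05 nM–50 μM) were preincubated 30 min at room temperature, then cells were stimulated with gardiquimod 7.5 μM (TLR7), R848 15.9 μM (TLR8) or ODN2006 5 nM (TLR9) for 22 h at 37 °C.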
# human TLR8 = biological target: T2, human TLR8 (Homo sapiens, UniProt Q9NR97); experiment: TLR8 inhibition reporter assay (HEK-Blue SEAP reporter, R848 stimulation); conditions: HEK-Blue cells overexpressing human TLR8, SEAP reporter, R848 15.9 μM, 22 hour incubation
# T2 construct: host or cells: HEK-Blue cells
# T2 sequence (Q9NR97 27-1041): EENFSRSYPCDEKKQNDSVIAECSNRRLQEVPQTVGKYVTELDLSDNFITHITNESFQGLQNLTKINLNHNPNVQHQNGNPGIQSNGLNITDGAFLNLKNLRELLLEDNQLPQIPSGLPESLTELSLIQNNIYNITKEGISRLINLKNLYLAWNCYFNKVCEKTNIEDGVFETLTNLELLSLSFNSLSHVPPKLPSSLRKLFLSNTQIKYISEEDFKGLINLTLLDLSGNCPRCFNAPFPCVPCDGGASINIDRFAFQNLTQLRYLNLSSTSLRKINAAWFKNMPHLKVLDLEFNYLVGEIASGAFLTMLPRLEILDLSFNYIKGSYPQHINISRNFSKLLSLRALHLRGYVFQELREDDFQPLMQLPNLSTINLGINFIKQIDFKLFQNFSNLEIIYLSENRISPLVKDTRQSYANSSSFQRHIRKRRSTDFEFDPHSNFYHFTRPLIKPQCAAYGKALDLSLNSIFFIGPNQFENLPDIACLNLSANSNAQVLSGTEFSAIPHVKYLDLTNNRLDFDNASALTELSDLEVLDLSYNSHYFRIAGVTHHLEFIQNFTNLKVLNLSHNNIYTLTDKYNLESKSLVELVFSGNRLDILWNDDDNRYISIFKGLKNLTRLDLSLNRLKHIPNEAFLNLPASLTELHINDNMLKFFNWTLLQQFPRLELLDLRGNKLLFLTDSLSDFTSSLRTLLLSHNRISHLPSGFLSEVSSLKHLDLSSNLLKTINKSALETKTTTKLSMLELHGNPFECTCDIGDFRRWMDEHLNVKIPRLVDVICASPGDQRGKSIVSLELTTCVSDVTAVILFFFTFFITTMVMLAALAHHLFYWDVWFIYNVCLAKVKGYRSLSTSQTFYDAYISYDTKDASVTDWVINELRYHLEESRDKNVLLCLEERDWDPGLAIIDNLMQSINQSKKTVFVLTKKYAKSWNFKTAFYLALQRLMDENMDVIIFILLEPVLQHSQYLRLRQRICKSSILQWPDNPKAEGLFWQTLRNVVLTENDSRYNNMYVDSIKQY
# In short: as §1
# human TLR9 = biological target: T3, human TLR9 (Homo sapiens, UniProt Q9NR96); experiment: TLR9 inhibition reporter assay (HEK-Blue SEAP reporter, ODN2006 stimulation); conditions: HEK-Blue cells overexpressing human TLR9, SEAP reporter, ODN2006 5 nM, 22 hour incubation
# T3 construct: host or cells: HEK-Blue cells
# T3 sequence (Q9NR96 26-1032): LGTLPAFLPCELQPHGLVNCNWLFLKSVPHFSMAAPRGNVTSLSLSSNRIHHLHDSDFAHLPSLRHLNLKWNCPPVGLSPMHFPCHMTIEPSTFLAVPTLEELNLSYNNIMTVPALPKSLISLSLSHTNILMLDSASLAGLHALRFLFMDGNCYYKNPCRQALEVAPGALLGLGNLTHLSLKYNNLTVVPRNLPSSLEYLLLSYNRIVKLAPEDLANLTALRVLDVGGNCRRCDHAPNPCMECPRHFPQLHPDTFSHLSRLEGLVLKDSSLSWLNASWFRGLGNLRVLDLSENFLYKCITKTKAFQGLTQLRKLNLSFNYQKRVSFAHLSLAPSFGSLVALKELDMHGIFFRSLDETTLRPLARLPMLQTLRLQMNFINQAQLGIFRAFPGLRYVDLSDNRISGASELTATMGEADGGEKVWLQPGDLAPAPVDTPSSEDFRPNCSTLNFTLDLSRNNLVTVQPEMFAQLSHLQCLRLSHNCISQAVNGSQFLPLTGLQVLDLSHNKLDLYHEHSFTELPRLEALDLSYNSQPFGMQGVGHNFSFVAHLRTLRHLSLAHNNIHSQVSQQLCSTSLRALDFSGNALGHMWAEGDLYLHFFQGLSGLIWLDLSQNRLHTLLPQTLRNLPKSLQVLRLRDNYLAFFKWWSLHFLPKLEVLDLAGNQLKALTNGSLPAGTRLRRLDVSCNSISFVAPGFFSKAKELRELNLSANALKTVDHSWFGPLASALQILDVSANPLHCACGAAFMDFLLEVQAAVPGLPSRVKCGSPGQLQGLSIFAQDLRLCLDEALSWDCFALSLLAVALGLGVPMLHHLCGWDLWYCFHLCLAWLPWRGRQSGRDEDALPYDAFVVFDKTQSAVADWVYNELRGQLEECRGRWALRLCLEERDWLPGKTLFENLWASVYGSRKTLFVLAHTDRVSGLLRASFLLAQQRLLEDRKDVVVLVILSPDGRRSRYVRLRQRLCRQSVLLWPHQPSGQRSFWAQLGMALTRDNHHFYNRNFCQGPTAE
# In short: as §1
SMILES,IC50 (human TLR7),IC50 (human TLR8),IC50 (human TLR9)
"Cc1cc(-c2[nH]c3ccc(C4CCN(CCC#N)CC4)cc3c2C(C)C)cn(C)c1=O [Example 76, 3-(4-(2-(1,5-dimethyl-6-oxo-1,6-dihydropyridin-3-yl)-3-isopropyl-1H-indol-5-yl)piperidin-1-yl)propanenitrile]",4.4 nM,4.7 nM,19900 nM
"Cc1cc(-c2[nH]c3ccc(C4CCN(Cc5ccc(OC(F)(F)F)cc5)CC4)cc3c2C(C)C)cn(C)c1=O [Example 77, 5-(3-isopropyl-5-(1-(4-(trifluoromethoxy)benzyl)piperidin-4-yl)-1H-indol-2-yl)-1,3-dimethylpyridin-2(1H)-one]",123 nM,50.6 nM,7850 nM
"Cc1cc(-c2[nH]c3ccc(C4CCN(C5CCS(=O)(=O)C5)CC4)cc3c2C(C)C)cn(C)c1=O (stereo not drawn) [Example 81, 5-(5-(1-(1,1-dioxidotetrahydrothiophen-3-yl)piperidin-4-yl)-3-isopropyl-1H-indol-2-yl)-1,3-dimethylpyridin-2(1H)-one]",8.8 nM,20.3 nM,≥ 50000 nM
"Cc1cc(-c2[nH]c3ccc(C4CCN(CCC(N)=O)CC4)cc3c2C(C)C)cn(C)c1=O [Example 82, 3-(4-(2-(1,5-dimethyl-6-oxo-1,6-dihydropyridin-3-yl)-3-isopropyl-1H-indol-5-yl)piperidin-1-yl)propanamide]",9.5 nM,11.9 nM,799 nM
"Cc1cc(-c2[nH]c3ccc(C4CCN(CC5CC5(F)F)CC4)cc3c2C(C)C)cn(C)c1=O (stereo not drawn) [Example 83, 5-(5-(1-((2,2-difluorocyclopropyl)methyl)piperidin-4-yl)-3-isopropyl-1H-indol-2-yl)-1,3-dimethylpyridin-2(1H)-one]",3.9 nM,1.2 nM,7140 nM
"Cc1cc(-c2[nH]c3ccc(C4CCN(CCN5C(=O)CCC5=O)CC4)cc3c2C(C)C)cn(C)c1=O [Example 84, 1-(2-(4-(2-(1,5-dimethyl-6-oxo-1,6-dihydropyridin-3-yl)-3-isopropyl-1H-indol-5-yl)piperidin-1-yl)ethyl)pyrrolidine-2,5-dione]",44.3 nM,73.6 nM,≥ 50000 nM

# More lines, now with the values ahead:
IC50 (human TLR7),IC50 (human TLR8),IC50 (human TLR9),SMILES
5 nM,5.6 nM,9330 nM,"Cc1cc(-c2[nH]c3ccc(C4CCN(CC(C)C)CC4)cc3c2C(C)C)cn(C)c1=O [Example 75, 5-(5-(1-isobutylpiperidin-4-yl)-3-isopropyl-1H-indol-2-yl)-1,3-dimethylpyridin-2(1H)-one]"
67.6 nM,64 nM,34800 nM,"Cc1cc(-c2[nH]c3ccc(C4CCN(Cc5cc(OC(F)F)ccc5F)CC4)cc3c2C(C)C)cn(C)c1=O [Example 78, 5-(5-(1-(5-(difluoromethoxy)-2-fluorobenzyl)piperidin-4-yl)-3-isopropyl-1H-indol-2-yl)-1,3-dimethylpyridin-2(1H)-one]"
11.1 nM,10.8 nM,3790 nM,"Cc1cc(-c2[nH]c3ccc(C4CCN(CCCC(F)(F)F)CC4)cc3c2C(C)C)cn(C)c1=O [Example 79, 5-(3-isopropyl-5-(1-(4,4,4-trifluorobutyl)piperidin-4-yl)-1H-indol-2-yl)-1,3-dimethylpyridin-2(1H)-one]"
128 nM,141 nM,48800 nM,"Cc1cc(-c2[nH]c3ccc(C4CCN(Cc5cc(Cl)ccc5F)CC4)cc3c2C(C)C)cn(C)c1=O [Example 80, 5-(5-(1-(5-chloro-2-fluorobenzyl)piperidin-4-yl)-3-isopropyl-1H-indol-2-yl)-1,3-dimethylpyridin-2(1H)-one]"
2.2 nM,4.6 nM,8450 nM,"Cc1cc(-c2[nH]c3ccc(C4CCN(CCCO)CC4)cc3c2C(C)C)cn(C)c1=O [Example 85, 5-(5-(1-(3-hydroxypropyl)piperidin-4-yl)-3-isopropyl-1H-indol-2-yl)-1,3-dimethylpyridin-2(1H)-one]"

# Reference: patent US11447466B2, “Substituted indole compounds useful as inhibitors of TLR7/8/9” (BRISTOL-MYERS SQUIBB COMPANY, priority 2017, dated 2022)
